# Laboratory results from PubChem BioAssay AID1963837 (Molecular Pharmacology Branch, DTP, NCI, 2024).
# System: 843126-344-R-J1-PDC complex spheroid viability
# Experiment: Anticancer human tumor 843126-344-R-J1-PDC patient-derived melanoma cell line growth inhibition [POLQ]
# Conditions: for IC50: curve of first compound; for viability, T/C: stronger effect = lower value
# Summary of the method: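 Three-cell-type spheroids modelling solid tumor plus stroma served as the readout system; POL inhibitors were tested individually and in combination, concentration ranges set by clinical Cmax where known.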
# [1] = second compound 0.0316 µM, first compound 0.0316 µM
# [2] = second compound 0.0316 µM, first compound 0.1 µM
# [3] = second compound 0.0316 µM, first compound 0.316 µM
# [4] = second compound 0.0316 µM, first compound 1 µM
# [5] = second compound 0.1 µM, first compound 0.0316 µM
# [6] = second compound 0.1 µM, first compound 0.1 µM
# [7] = second compound 0.1 µM, first compound 0.316 µM
# [8] = second compound 0.1 µM, first compound 1 µM
# [9] = second compound 0.316 µM, first compound 0.0316 µM
# [10] = second compound 0.316 µM, first compound 0.1 µM
# [11] = second compound 0.316 µM, first compound 0.316 µM
# [12] = second compound 0.316 µM, first compound 1 µM
# [13] = second compound 1 µM, first compound 0.0316 µM
# [14] = second compound 1 µM, first compound 0.1 µM
# [15] = second compound 1 µM, first compound 0.316 µM
# [16] = second compound 1 µM, first compound 1 µM
# [17] = second compound 3.16 µM, first compound 0.0316 µM
# [18] = second compound 3.16 µM, first compound 0.1 µM
# [19] = second compound 3.16 µM, first compound 0.316 µM
# [20] = second compound 3.16 µM, first compound 1 µM
# [21] = second compound 10 µM, first compound 0.0316 µM
# [22] = second compound 10 µM, first compound 0.1 µM
# [23] = second compound 10 µM, first compound 0.316 µM
# [24] = second compound 10 µM, first compound 1 µM
# 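Throughout, for viability, T/C: spheroids exposed to drugs for seven days before readout.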
smiles,measurement,setting,value
C=CCn1c(=O)c2cnc(Nc3ccc(N4CCN(C)CC4)cc3)nc2n1-c1cccc(C(C)(C)O)n1 + COC1C(OC(N)=O)C(O)C(Oc2ccc3c(O)c(NC(=O)c4ccc(O)c(CC=C(C)C)c4)c(=O)oc3c2C)OC1(C)C,IC50,second compound 0.0316 µM,> 1 µM
same,IC50,second compound 0.1 µM,> 1 µM
same,IC50,second compound 0.316 µM,> 1 µM
same,IC50,second compound 1 µM,> 1 µM
same,IC50,second compound 3.16 µM,> 1 µM
same,IC50,second compound 10 µM,> 1 µM
same,"viability, T/C","second compound 0.0316 µM, first compound 0.00316 µM",114%
same,"viability, T/C","second compound 0.0316 µM, first compound 0.01 µM",84%
same,"viability, T/C",[1],86.6%
same,"viability, T/C",[2],81.5%
same,"viability, T/C",[3],89.4%
same,"viability, T/C",[4],80%
same,"viability, T/C","second compound 0.1 µM, first compound 0.00316 µM",93.7%
same,"viability, T/C","second compound 0.1 µM, first compound 0.01 µM",90.4%
same,"viability, T/C",[5],99.5%
same,"viability, T/C",[6],82.8%
same,"viability, T/C",[7],85.7%
same,"viability, T/C",[8],70.6%
same,"viability, T/C","second compound 0.316 µM, first compound 0.00316 µM",87%
same,"viability, T/C","second compound 0.316 µM, first compound 0.01 µM",115%
same,"viability, T/C",[9],98.8%
same,"viability, T/C",[10],88.5%
same,"viability, T/C",[11],81.2%
same,"viability, T/C",[12],86.6%
same,"viability, T/C","second compound 1 µM, first compound 0.00316 µM",78.4%
same,"viability, T/C","second compound 1 µM, first compound 0.01 µM",90.3%
same,"viability, T/C",[13],86.6%
same,"viability, T/C",[14],85.1%
same,"viability, T/C",[15],84.2%
same,"viability, T/C",[16],76.9%
same,"viability, T/C","second compound 3.16 µM, first compound 0.00316 µM",83.6%
same,"viability, T/C","second compound 3.16 µM, first compound 0.01 µM",106%
same,"viability, T/C",[17],98.5%
same,"viability, T/C",[18],72.7%
same,"viability, T/C",[19],81.7%
same,"viability, T/C",[20],84.2%
same,"viability, T/C","second compound 10 µM, first compound 0.00316 µM",89.8%
same,"viability, T/C","second compound 10 µM, first compound 0.01 µM",97.4%
same,"viability, T/C",[21],94.8%
same,"viability, T/C",[22],102%
same,"viability, T/C",[23],91.9%
same,"viability, T/C",[24],65%
C#Cc1c(F)ccc2cc(O)cc(-c3ncc4c(N5CC6CCC(C5)N6)nc(OCC56CCCN5CC(F)C6)nc4c3F)c12 (centres undefined) + Cc1cccc(N(C)C(=O)C2C(O)CCN2c2nc(C)cc(C(F)(F)F)c2C#N)c1,IC50,second compound 0.0316 µM,> 10 µM
same,IC50,second compound 0.1 µM,> 10 µM
same,IC50,second compound 0.316 µM,> 10 µM
same,IC50,second compound 1 µM,> 10 µM
same,IC50,second compound 3.16 µM,> 10 µM
same,IC50,second compound 10 µM,> 10 µM
same,"viability, T/C",[1],88%
same,"viability, T/C",[2],81.1%
same,"viability, T/C",[3],79.9%
same,"viability, T/C",[4],71.3%
same,"viability, T/C","second compound 0.0316 µM, first compound 3.16 µM",95.8%
same,"viability, T/C","second compound 0.0316 µM, first compound 10 µM",74%
same,"viability, T/C",[5],103%
same,"viability, T/C",[6],98.6%
same,"viability, T/C",[7],92.9%
same,"viability, T/C",[8],76%
same,"viability, T/C","second compound 0.1 µM, first compound 3.16 µM",118%
same,"viability, T/C","second compound 0.1 µM, first compound 10 µM",79.6%
same,"viability, T/C",[9],96.1%
same,"viability, T/C",[10],105%
same,"viability, T/C",[11],91.2%
same,"viability, T/C",[12],80.2%
same,"viability, T/C","second compound 0.316 µM, first compound 3.16 µM",75.4%
same,"viability, T/C","second compound 0.316 µM, first compound 10 µM",77.4%
same,"viability, T/C",[13],77.1%
same,"viability, T/C",[14],106%
same,"viability, T/C",[15],82.8%
same,"viability, T/C",[16],89.9%
same,"viability, T/C","second compound 1 µM, first compound 3.16 µM",91.2%
same,"viability, T/C","second compound 1 µM, first compound 10 µM",79%
same,"viability, T/C",[17],83.5%
same,"viability, T/C",[18],80.3%
same,"viability, T/C",[19],87.3%
same,"viability, T/C",[20],93.7%
same,"viability, T/C","second compound 3.16 µM, first compound 3.16 µM",82.7%
same,"viability, T/C","second compound 3.16 µM, first compound 10 µM",69.8%
same,"viability, T/C",[21],102%
same,"viability, T/C",[22],80.1%
same,"viability, T/C",[23],95.5%
same,"viability, T/C",[24],85.9%
same,"viability, T/C","second compound 10 µM, first compound 3.16 µM",91.6%
same,"viability, T/C","second compound 10 µM, first compound 10 µM",61.8%
